The text below walks through data of US20050215635A1, “Diarylheptanoid compounds and uses thereof” (priority 2004, published 2005).

SMILES strings stand for the structures.

Assay [1] in a line: Radical-scavenging activity by DPPH. As to conditions: for IC50: DPPH 63.4 μM in methanol, absorbance at 515 nm, steady state, read-out: IC50 (μM) of Diarylheptanoids in Scavenging DPPH Free Radicals; for free radical scavenging, DPPH data (in words): DPPH assay. The text has this: In this example, the 2,2-diphenyl-1-picrylhydrazyl (DPPH) method was used to explore the capacity of five isolated compounds of the invention to act as free radical scavengers. The DPPH assay has been extensively used to test the free radical scavenging ability of various chemicals (Brand-williams, W. et al., Wiss. Technol. 1995, 28, 25-30; Dinis, T. C. et al., Arch. Biochem. Biophys. 1994, 315, 161-169.)
This method was adapted from that of Brand-Williams, et al. (Brand-williams, W.; Cuvelier, M. E.; Berset, C. Lebensm. Wiss. Technol. 1995, 28, 25-30.). At least seven different concentrations were prepared for each purified compound. 25 μl pure compound solution and 975 μL DPPH solution (63.4 μM) were mixed together and left in the dark for 30 min. Each sample was triplicated and the values were averaged. The absorbance of the samples was measured at 515 nm against methanol solution without DPPH as the blank reference. The absorbance was measured every 30 min until the reaction reached a plateau. The reaction kinetics were then plotted using the above data and the percentage of DPPH remaining at the steady state was obtained. IC50 values were determined by extrapolation from linear regression analysis.
DPPH, 2,2-Diphenyl-1-picrylhydrazyl (DPPH.), is a stable radical in methanol solution. In its radical form, DPPH. absorbs at 515 nm, but the absorption ceases upon reduction by an antioxidant (AH) or a radical species (R.) (Brand-williams, W.; Cuvelier, M. E.; Berset, C. Lebensm. Wiss. Technol. 1995, 28, 25-30.). The concentration of tested chemicals needed to decrease the initial DPPH. concentration by 50% (IC50) is a parameter widely used to measure the antioxidant potential (Kanner, J.; Frankel, E.; German, B.; Kinsella, J. e. J. Agric. Food Chem. 1994, 42, 64-69, Vinson, J. A.; Dabbagh, Y. A.; Serry, M. M. J. Agric. Food Chem. 1995a, 43,2800-2802.). The lower the IC50, the higher the free radical scavenging power.

For assay [2], the system named is Du-145 prostate tumor cells. Put plainly: MTT-microculture tetrazolium cell viability assay / induction of apoptosis in Du-145. It counts as cell-based. As to conditions: for IC50: Homo sapiens, Du-145 prostate tumor cells, MTT, 72 hours incubation, drug concentration giving 50% inhibition of growth, read-out: IC50 (μM), Effects of Diarylheptanoids on Inducing Apoptosis in DU-145 Cancer Cell Line; for activity in bioassay: inducing apoptosis in Du-145 cancer cell line (in words): bioassay-directed fractionation of Alpinia officinarum. How it is done:
The rhizomes of Alpinia officinarum were purchased from Nuherbs Co. (Oakland, Calif.). Du-145 prostate tumor cells were obtained from the American Type Culture Collection (ATCC). Cells were maintained at 37° C. in an atmosphere of 5% CO2 and grown in Roswell Park Memorial Institute (RPMI) media 1640 (GIBCO/BRL) with 10% fetal bovine serum and with 5% penicillin and streptomycin.
The powdered roots of Alpinia officinarum were extracted with methanol and concentrated under vacuum using rotary evaporation. The dried residue was then partitioned with hexanes, ethyl acetate and 1-butanol successively. The three extracts were subjected to bioassays.
The dried ethyl acetate extract was then chromatographed on a normal phase silica gel column (2.5×30 cm) to perform bioassay-directed fractionation. The extract was first dissolved in methanol and loaded onto the column packing material. The prepared extract was then placed on top of the column and elution was performed using a solvent mixture of chloroform/methanol with an increasing amount of methanol (30:1, 20:1, 10:1, 5:1, 0:100; each 1000 mL). Successive fractions were collected and tested for biological activity. […] This fraction was then rechromatographed on a semipreparative Zorbax Rx-C18 reversed phase HPLC column (9.4 mm×240 mm, 5 μm) purchased from MacMod Analytical (Chadds Ford, Pa.). Compounds were eluted by an isocratic solvent system: 55% A, water with 0.05% formic acid (FA); 45% B, ACN (v/v) at a flow rate of 4 mL/min. The wavelength monitored was 205 nm. Successive fractions (1-3) were collected and sent for biological testing again.
Cellular growth in the presence or absence of experimental agents was determined using the modified method as previously described MTT-microculture tetrazolium assay (World Health Organization (ED.), Medicinal Plants in China, WHO Regional Publications, 1989, 21). Briefly, rapidly growing cells were harvested, counted, and inoculated at the appropriate concentrations (100 μL volume) into 96-well micro-titer plates using a multichannel pipet. After 24 hours, AO-1 to AO-5 were applied in different concentrations to triplicate culture wells, and cultures were incubated for 72 hours at 37° C. MTT ( Sigma, St. Louis, Mo.) was prepared at 2 mg/ml in Phosphate buffered saline (PBS) and 50 μL were added to microculture wells. After 4 hour incubation at 37° C., […] were removed from each well, and 150 μL of 100% DMSO were added to solubilize the MTT-formazan product. After thorough mixing with a mechanical plate mixer, absorbence was measured at 570 nm using a Dynatech microplate reader. […] This assay is based on the reduction of MTT tetrazolium salt to a formazan product by the metabolic activity of live cells and which was measured in a multiwell scanning spectrophotometer. Cell line growth and growth inhibition were expressed in terms of mean absorbance units and following the substraction of mean background absorbance.

With `COc1cc(CCC(O)CC(=O)CCc2ccccc2)ccc1O` (stereo not shown) [AO-1, 5-Hydroxy-7-(4″-hydroxy-3″methoxyphenyl)-1-phenyl-3-heptanone], in assay [1], the half-maximal inhibitory concentration (IC50) (usually the concentration that gives 50% inhibition) worked out at 11.4 µM and the “free radical scavenging, DPPH data (in words)” value is listed as “very good free radical scavengers”. In assay [2], the IC50 amounted to 100 µM and the “activity in bioassay: inducing apoptosis in Du-145 cancer cell line (in words)” value (“activity in bioassay: inducing apoptosis” below) is on record as “biological activity to some level”.
In the case of `O=C(/C=C/CCc1ccc(O)cc1)CCc1ccccc1` [AO-3, 7-(4″-hydroxyphenyl)-1-phenyl-hept-4-en-3-one], in assay [1], the IC50 is more than 1000 µM. Besides, in assay [2], the IC50 was 20 µM and the “activity in bioassay: inducing apoptosis” value was “some activity”.
Take `COc1cc(CCC(CC(=O)CCc2ccccc2)OC)ccc1O` (stereo not shown) [AO-2, 5-methoxy-7-(4″-hydroxy-3″methoxyphenyl)-1-phenyl-3-heptanone]: in assay [1], the IC50 stood at 12.7 µM and the “free radical scavenging, DPPH data (in words)” value is “very good free radical scavengers”. For the same compound, in assay [2], the IC50 amounted to 88 µM and the “activity in bioassay: inducing apoptosis” value is on record as “some activity”.
For the compound `O=C(/C=C/CCc1ccccc1)CCc1ccccc1` [AO-5, 1,7-diphenylhept-4-en-3-one], the concentration for half-maximal inhibition (IC50) in assay [1] was more than 5000 µM; in assay [2], 32 µM.
